Assay results: patent US8134007B2, “Pyridine derivatives” (Pfizer Inc., priority 2007, dated 2012)

How the values were obtained:
Type in all cases: cell-based
Human Nav1.8 = target: T1, Human Nav1.8 (Homo sapiens, UniProt Q9Y5Y9); assay: VIPR Assay for Nav1.8 Compounds (FRET membrane potential, deltamethrin opener); conditions: VIPR FRET membrane potential assay, deltamethrin opener; average of replicates; read-out: Nav1.8 IC50
T1 construct: expressed in transfected cells; host or cells: HEK293
T1 sequence (Q9Y5Y9 whole entry): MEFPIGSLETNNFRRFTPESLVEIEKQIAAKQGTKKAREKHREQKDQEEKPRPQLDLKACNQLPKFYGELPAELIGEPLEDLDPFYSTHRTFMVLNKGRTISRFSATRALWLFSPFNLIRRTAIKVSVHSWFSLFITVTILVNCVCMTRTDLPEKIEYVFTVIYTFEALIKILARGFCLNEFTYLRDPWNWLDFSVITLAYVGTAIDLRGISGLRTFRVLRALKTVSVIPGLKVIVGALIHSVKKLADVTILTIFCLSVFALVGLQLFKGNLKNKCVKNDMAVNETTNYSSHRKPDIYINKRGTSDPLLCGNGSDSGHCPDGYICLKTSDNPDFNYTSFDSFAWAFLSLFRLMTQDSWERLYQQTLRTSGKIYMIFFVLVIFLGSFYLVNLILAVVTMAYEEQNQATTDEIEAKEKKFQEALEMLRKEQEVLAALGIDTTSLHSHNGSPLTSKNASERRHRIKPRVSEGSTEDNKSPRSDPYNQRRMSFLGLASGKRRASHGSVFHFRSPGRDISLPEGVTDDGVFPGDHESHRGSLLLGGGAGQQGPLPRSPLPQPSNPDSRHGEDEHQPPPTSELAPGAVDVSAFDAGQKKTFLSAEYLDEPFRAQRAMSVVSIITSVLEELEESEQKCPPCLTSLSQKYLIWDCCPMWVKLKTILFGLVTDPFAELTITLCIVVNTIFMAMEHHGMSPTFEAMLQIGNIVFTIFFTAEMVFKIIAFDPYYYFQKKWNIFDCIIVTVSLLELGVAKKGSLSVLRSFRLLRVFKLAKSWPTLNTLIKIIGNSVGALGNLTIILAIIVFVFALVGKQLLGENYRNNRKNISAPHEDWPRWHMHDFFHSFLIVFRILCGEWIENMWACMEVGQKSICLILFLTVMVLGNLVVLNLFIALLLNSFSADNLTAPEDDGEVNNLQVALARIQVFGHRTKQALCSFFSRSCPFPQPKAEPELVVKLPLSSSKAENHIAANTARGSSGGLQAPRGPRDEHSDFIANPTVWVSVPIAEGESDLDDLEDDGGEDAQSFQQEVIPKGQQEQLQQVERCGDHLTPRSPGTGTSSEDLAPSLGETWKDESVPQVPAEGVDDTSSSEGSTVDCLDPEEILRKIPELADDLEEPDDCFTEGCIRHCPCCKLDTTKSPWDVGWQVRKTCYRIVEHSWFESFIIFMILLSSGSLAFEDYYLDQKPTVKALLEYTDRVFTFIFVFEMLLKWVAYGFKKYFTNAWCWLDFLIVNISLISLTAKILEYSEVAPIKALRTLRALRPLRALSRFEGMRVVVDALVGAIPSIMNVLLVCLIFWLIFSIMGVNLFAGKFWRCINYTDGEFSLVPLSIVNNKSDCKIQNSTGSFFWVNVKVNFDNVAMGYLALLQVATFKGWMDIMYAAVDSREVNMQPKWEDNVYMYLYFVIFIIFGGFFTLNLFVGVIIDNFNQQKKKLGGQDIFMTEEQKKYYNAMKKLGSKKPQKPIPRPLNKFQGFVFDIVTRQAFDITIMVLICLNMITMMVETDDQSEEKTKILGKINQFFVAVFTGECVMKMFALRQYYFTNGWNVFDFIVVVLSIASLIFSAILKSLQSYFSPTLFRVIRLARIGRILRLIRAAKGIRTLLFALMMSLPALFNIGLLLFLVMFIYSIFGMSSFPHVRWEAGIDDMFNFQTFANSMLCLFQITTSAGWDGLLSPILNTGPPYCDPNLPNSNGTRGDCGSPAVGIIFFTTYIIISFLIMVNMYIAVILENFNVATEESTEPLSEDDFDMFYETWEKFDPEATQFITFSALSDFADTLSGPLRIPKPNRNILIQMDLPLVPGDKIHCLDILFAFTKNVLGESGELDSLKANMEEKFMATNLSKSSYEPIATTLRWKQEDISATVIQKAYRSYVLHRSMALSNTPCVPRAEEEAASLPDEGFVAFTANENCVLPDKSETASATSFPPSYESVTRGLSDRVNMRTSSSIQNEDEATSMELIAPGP

Human Nav1.5 = target: T2, Human Nav1.5 (Homo sapiens, UniProt Q14524); assay: Nav1.5 Assay (VIPR, HEK293 cells); conditions: HEK293 cells expressing Human Nav1.5; average of replicates; read-out: Nav1.5 IC50
T2 construct: expressed in transfected cells; host or cells: HEK293
T2 sequence (Q14524 whole entry): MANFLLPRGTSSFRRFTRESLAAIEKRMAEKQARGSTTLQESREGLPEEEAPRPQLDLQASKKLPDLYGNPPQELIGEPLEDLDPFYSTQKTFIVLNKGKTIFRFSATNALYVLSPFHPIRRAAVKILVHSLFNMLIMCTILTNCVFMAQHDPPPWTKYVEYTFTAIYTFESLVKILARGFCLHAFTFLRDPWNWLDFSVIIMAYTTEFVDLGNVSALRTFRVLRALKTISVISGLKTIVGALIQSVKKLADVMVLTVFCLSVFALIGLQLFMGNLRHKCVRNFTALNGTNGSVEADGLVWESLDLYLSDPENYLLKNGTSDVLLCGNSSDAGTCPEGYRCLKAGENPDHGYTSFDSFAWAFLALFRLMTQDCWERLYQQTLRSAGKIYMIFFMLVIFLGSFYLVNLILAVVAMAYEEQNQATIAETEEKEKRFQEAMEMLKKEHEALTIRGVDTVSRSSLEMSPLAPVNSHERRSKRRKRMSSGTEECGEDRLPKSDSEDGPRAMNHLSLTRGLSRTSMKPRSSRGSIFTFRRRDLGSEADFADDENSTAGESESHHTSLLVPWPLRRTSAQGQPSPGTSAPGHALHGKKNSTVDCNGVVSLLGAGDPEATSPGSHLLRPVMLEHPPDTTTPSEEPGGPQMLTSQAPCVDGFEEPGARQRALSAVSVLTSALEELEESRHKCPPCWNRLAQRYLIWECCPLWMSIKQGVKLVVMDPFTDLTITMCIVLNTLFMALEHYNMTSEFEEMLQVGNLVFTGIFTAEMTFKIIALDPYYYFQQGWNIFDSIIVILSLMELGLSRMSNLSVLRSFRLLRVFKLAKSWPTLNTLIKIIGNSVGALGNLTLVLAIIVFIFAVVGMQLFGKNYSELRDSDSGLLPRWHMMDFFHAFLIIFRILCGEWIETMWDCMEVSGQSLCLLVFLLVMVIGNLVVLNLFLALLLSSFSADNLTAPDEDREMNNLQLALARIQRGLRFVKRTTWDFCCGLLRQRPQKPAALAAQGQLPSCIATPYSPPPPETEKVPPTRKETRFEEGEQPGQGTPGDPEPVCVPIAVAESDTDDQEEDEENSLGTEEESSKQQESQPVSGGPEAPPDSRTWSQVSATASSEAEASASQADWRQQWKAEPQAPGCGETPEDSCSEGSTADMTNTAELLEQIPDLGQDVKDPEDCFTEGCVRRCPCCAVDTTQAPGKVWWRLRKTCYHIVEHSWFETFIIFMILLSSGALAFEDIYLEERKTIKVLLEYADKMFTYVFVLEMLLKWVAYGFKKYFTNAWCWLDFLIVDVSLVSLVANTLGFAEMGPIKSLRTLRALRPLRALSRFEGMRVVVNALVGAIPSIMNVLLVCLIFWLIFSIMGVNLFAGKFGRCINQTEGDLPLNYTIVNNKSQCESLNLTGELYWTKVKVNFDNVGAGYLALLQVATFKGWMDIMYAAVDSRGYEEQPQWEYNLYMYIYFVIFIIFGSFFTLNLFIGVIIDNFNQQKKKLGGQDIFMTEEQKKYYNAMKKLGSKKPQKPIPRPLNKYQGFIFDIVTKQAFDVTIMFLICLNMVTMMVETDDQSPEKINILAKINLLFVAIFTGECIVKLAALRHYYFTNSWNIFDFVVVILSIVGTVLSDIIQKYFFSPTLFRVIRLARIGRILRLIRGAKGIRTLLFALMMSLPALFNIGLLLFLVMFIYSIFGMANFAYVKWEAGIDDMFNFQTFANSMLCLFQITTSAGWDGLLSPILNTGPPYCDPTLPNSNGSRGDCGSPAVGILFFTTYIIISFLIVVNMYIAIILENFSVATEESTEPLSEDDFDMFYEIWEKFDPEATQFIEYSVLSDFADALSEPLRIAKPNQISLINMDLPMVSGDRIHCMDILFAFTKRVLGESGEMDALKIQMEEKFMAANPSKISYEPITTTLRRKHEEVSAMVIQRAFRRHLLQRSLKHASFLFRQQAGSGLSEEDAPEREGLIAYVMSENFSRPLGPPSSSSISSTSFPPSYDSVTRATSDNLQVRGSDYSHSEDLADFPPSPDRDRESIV
Procedure: The Nav1.5 assay is performed in HEK293 cells expressing Human Nav1.5 in the same way as the Nav1.8 assay.
Where replicate experiments were conducted resulting in multiple sets of data for a test compound, the data presented represent the average value from all replicate experiments.

[1] = test system: tetrodotoxin-sensitive voltage-gated sodium channels including NaV1.2, NaV1.3 and NaV1.7; assay: TTX-S Assay (VIPR, SHSY-5Y cell line, veratridine opener); conditions: read-out: TTX-S IC50, veratridine 50 μM opener, average of replicates

| SMILES | IC50 (Human Nav1.8) | IC50 (Human Nav1.5) | IC50 [1] |
| --- | --- | --- | --- |
| Cn1nccc1C(=O)Nc1ccc(-c2ccccc2OCC(F)(F)F)c(N)n1 [Example 119] | 2 µM | 31 µM | 26 µM |
| Cn1nccc1C(=O)Nc1ccc(-c2ccc(OC(F)(F)F)cc2)c(N)n1 [Example 120] | 12 µM | 10 µM | 5.2 µM |
| Cn1nccc1C(=O)Nc1ccc(-c2ccc(OC(F)(F)F)c(F)c2)c(N)n1 [Example 121] | 10 µM | 8.6 µM | 3.2 µM |
| Cn1nccc1C(=O)Nc1ccc(-c2ccc(OCC(F)(F)F)cc2)c(N)n1 [Example 122] | 19 µM | 14 µM | 12 µM |
| Cc1nocc1C(=O)Nc1ccc(-c2cccc(C(F)(F)F)c2Cl)c(N)n1 [Example 124] | 11 µM | 12 µM | 8.6 µM |
| Cc1nocc1C(=O)Nc1ccc(-c2cc(F)ccc2O)c(N)n1 [Example 128] | 15 µM | > 32 µM | > 32 µM |
| Cc1nocc1C(=O)Nc1ccc(-c2cc(O)ccc2Cl)c(N)n1 [Example 175, N-[6-amino-5-(2-chloro-5-hydroxyphenyl)pyridin-2-yl]-3-methylisoxazole-4-carboxamide] | 23 µM | > 32 µM | 20 µM |
